Read-outs that look alike come from different tables or passages of the source.
Assays:
Format in all cases: cell-based, human
HL-60 = assay: Cytotoxicity test (ViaLight Plus cell proliferation) on HL-60; conditions: 72 hours' incubation, cell viability vs 0.5% DMSO control; for IC50: read-out: EC50 HL-60
Source text: (§1) The effects of the compounds of the invention on the proliferation of cancer cells were studied on different human cancer cell lines of different tissue origin (MCF-7: breast cancer, MCF-7/adr adriamycin-resistant breast cancer, HL-60: acute promyelocytic leukaemia, HL-60/R10: doxorubicin-resistant acute promyelocytic leukaemia, HT29: colon adenocarcinoma, Mia Paca2: pancreatic tumour, Panc-1: pancreatic exocrine tumour, SK-OV-3: cisplatin- and adriamycin resistant ovarian cancer). The cancer cells used for this study were incubated at 37° C. in the presence of one of the compounds of the invention added to the culture medium at different concentrations.
(§2) The cancer cell lines were obtained from ATCC (American Type Culture Collection) for MCF-7, from Hôpital de la Pitié Salpetrière for MCF-7/adr and from Oncodesign (Dijon, France) for HL-60, HL-60/R10, HT29, MiaPaCa2, Panc-1 and SK-OV-3. They were cultured in RPMI 1640 medium containing 2 mM L-Glutamine supplemented with 10% foetal calf serum (Lonza; Verviers, Belgium). All the cell lines were held in culture at 37° C. in a humid atmosphere containing 5% CO2. Cell proliferation was assessed using the ViaLight® Plus Assay Kit (Lonza; Verviers, Belgium) following the manufacturer's instructions. The cells were seeded in 96-well culture plates compatible with luminescence read-off (white plates with transparent bottom) in a proportion of 5 000 to 10 000 cells per well in 100 μl of culture medium. After a pre-incubation time of 24 hours at 37° C., the compounds of the invention dissolved in dimethylsulfoxide (DMSO) were individually added to each well in a proportion of 0.5 μl per well. After 72 hours' incubation at 37° C. in a humid atmosphere containing 5% CO2, 50 μl of lysis buffer were added to each well and 15 minutes later 100 μl of ATP measuring agent were added. The plates were read under a luminometer to evaluate cell viability. The data obtained was processed by computer to obtain the EC50 value i.e. the concentration value of each of the compounds which induces 50% cell viability compared with a control value (0.5% DMSO alone).

HL-60/R10 = assay: Cytotoxicity test (ViaLight Plus cell proliferation) on HL-60/R10; conditions: doxorubicin-resistant line, 72 hours' incubation, cell viability vs 0.5% DMSO control, read-out: EC50 HL60/R10
Source text: as §1, §2

MCF-7 = assay: Cytotoxicity test (ViaLight Plus cell proliferation) on MCF-7; conditions: 72 hours' incubation, cell viability vs 0.5% DMSO control
Source text: as §1, §2

MCF-7/adr = assay: Cytotoxicity test (ViaLight Plus cell proliferation) on MCF-7/adr; conditions: adriamycin-resistant line, 72 hours' incubation, cell viability vs 0.5% DMSO control
Source text: as §1, §2

| Compound | EC50 (HL-60) [nM] | EC50 (HL-60/R10) [nM] | EC50 (MCF-7/adr) [nM] | further results |
| --- | --- | --- | --- | --- |
| Cc1cc(OC(C)C)ccc1N(C(=O)CCl)C(C(=O)N1CCN[C@@H](C(C)C)C1)c1ccc(F)cc1 (single isomer, unassigned; dia1) [I-26 dia1] | 2450 | 13 | 93 | EC50 (MCF-7): 1950 nM |
| CC(C)C[C@H]1CN(C(=O)C(c2cccs2)N(C(=O)CCl)c2ccc(Oc3ccccc3)cc2)CCN1 (single isomer, unassigned; dia2) [I-51 dia2] | 3 | 1 | – | – |
| Cc1cc(Oc2ccccc2)ccc1N(C(=O)CCl)C(C(=O)N1C[C@@H](C)N[C@@H](C)C1)c1ccc(F)cc1 (some centres unmarked) [Example I-14] | – | – | – | IC50 (HL-60; Homo sapiens, HL-60, 72 h): 1850 nM; EC50 (HL-60; Homo sapiens, HL-60): 1850 nM; IC50 (HL-60/R10; Homo sapiens, HL-60, 72 h): 95 nM; EC50 (HL-60/R10; Homo sapiens, HL-60): 95 nM; IC50 (MCF-7; Homo sapiens, MCF7, 72 h, read-out: EC50 MCF-7): 2500 nM; IC50 (MCF-7/adr; Homo sapiens, NCI/ADR-RES, 72 h, read-out: EC50 MCF-7/adr): 232 nM |
| Cc1cc(CCC(C)(C)C)ccc1N(C(=O)CCl)C(C(=O)N1CCNC(C(C)C)C1)c1ccc(F)cc1 (single isomer, unassigned; dia1) [I-25 dia1] | 1120 | 43 | – | – |
| Cc1cc(Oc2ccccc2)ccc1N(C(=O)CCl)C(C(=O)N1CCNCC1)c1ccc(F)cc1 (centres unmarked) [reference compound] | – | – | – | IC50 (HL-60; Homo sapiens, HL-60, 72 h): 1630 nM; IC50 (HL-60/R10; Homo sapiens, HL-60, 72 h): 226 nM |
| Cc1cc(OC(F)(F)F)ccc1N(C(=O)CCl)C(C(=O)N1CCN[C@@H](C(C)C)C1)c1ccc(F)cc1 (single isomer, unassigned; dia2) [I-27 dia2] | 1150 | 18 | 34 | EC50 (MCF-7): 430 nM |
| Cc1cc(Oc2ccccc2)ccc1N(C(=O)CCl)C(C(=O)N1CCN[C@@H](CC(C)C)C1)c1cccs1 (single isomer, unassigned; dia1) [I-47 dia1] | 936 | 54 | – | – |
| Cc1cc(Oc2ccccc2)ccc1N(C(=O)CCl)C(C(=O)N1CCN(C(=O)OC(C)(C)C)[C@H](C)C1)c1cccs1 (single isomer, unassigned; dia1) [I-40 dia1] | 2130 | 248 | 371 | – |
| tert-butyl ester of 4-[2-[(2-chloro-acetyl)-(4-phenoxy-phenyl)-amino]-2-(4-fluoro-phenyl)-acetyl]-(S)-2-isopropyl-piperazine-1-carboxylic acid [I-1 dia1] | 1800 | – | 338 | – |
| Cc1cc(Cl)ccc1N(C(=O)CCl)C(C(=O)N1CCN[C@@H](C(C)C)C1)c1cccs1 (single isomer, unassigned; dia1) [I-52 dia1] | – | 194 | – | – |
| CC[C@H]1CN(C(=O)C(c2ccc(F)cc2)N(C(=O)CCl)c2ccc(Oc3ccccc3)cc2)CCN1C(=O)OC(C)(C)C (single isomer, unassigned; dia2) [I-19 dia2] | 453 | 24 | 35 | – |
| CC[C@H]1CN(C(=O)C(c2ccc(F)cc2)N(C(=O)CCl)c2ccc(Oc3ccccc3)cc2C)CCN1 (single isomer, unassigned; dia1) [I-17 dia1] | 2310 | 353 | 898 | – |
| CC1CN(C(=O)C(c2cccs2)N(C(=O)CCl)c2cccc(C(F)(F)F)c2)CC(C)N1C(=O)OC(C)(C)C (centres unmarked) [Example I-28] | – | – | – | IC50 (HL-60; Homo sapiens, HL-60, 72 h): 623 nM; IC50 (HL-60/R10; Homo sapiens, HL-60, 72 h): 206 nM |
| CC[C@@H]1CN(C(=O)C(c2ccc(F)cc2)N(C(=O)CCl)c2ccc(Oc3ccccc3)cc2C)CCN1 (single isomer, unassigned; dia1) [I-18 dia1] | 1600 | 140 | 485 | – |
| tert-butyl ester of 4-[-2-[(2-chloro-acetyl)-(4-phenoxy-phenyl)-amino]-2-(4-fluoro-phenyl)-acetyl]-(R)-2-isopropyl-piperazine-1-carboxylic acid [I-2 dia2] | 2060 | 472 | 645 | – |
| CC[C@@H]1CN(C(=O)C(c2ccc(F)cc2)N(C(=O)CCl)c2ccc(Oc3ccccc3)cc2C)CCN1C(=O)OC(C)(C)C (single isomer, unassigned; dia2) [I-16 dia2] | 1910 | 317 | 443 | – |
| C[C@@H]1CN(C(=O)[C@H](c2cccs2)N(C(=O)CCl)c2ccc(Oc3ccccc3)cc2)C[C@H](C)N1 [Example I-44] | 215 | 7 | – | – |
| Cc1cc(Cl)ccc1N(C(=O)CCl)C(C(=O)N1C[C@@H](C)N[C@@H](C)C1)c1cccs1 (some centres unmarked) [Example I-49] | – | – | – | IC50 (HL-60; Homo sapiens, HL-60, 72 h): 1170 nM; IC50 (HL-60/R10; Homo sapiens, HL-60, 72 h): 321 nM |

| Compound | EC50 (HL-60) [nM] | EC50 (HL-60/R10) [nM] | EC50 (MCF-7/adr) [nM] | further results |
| --- | --- | --- | --- | --- |
| Cc1cc(Oc2ccccc2)ccc1N(C(=O)CCl)C(C(=O)N1CCN(C(=O)OC(C)(C)C)[C@H](C)C1)c1cccs1 (single isomer, unassigned; dia2) [I-40 dia2] | – | 487 | 827 | – |
| CC(C)[C@H]1CN(C(=O)C(c2cccs2)N(C(=O)CCl)c2cccc(C(F)(F)F)c2)CCN1 (single isomer, unassigned; dia1) [I-50 dia1] | 2100 | 259 | – | – |
| Cc1cc(CCC(C)(C)C)ccc1N(C(=O)CCl)C(C(=O)N1C[C@@H](C)N[C@@H](C)C1)c1ccc(F)cc1 (some centres unmarked) [Example I-24] | – | – | – | IC50 (HL-60; Homo sapiens, HL-60, 72 h): 626 nM; IC50 (HL-60/R10; Homo sapiens, HL-60, 72 h): 15 nM |
| Cc1cc(Oc2ccccc2)ccc1N(C(=O)CCl)C(C(=O)N1CCN[C@@H](C(C)C)C1)c1cccs1 (single isomer, unassigned; dia1) [I-46 dia1] | – | 318 | 544 | – |
| Cc1cc(Oc2ccccc2)ccc1N(C(=O)CCl)C(C(=O)N1CCNC(Cc2ccccc2)C1)c1cccs1 (centres unmarked) [Example I-48] | – | – | – | IC50 (HL-60; Homo sapiens, HL-60, 72 h): 1990 nM; IC50 (HL-60/R10; Homo sapiens, HL-60, 72 h): 10 nM |
| CC[C@@H]1CN(C(=O)C(c2ccc(F)cc2)N(C(=O)CCl)c2ccc(Oc3ccccc3)cc2)CCN1C(=O)OC(C)(C)C (single isomer, unassigned; dia2) [I-20 dia2] | 1480 | 139 | 165 | – |
| Cc1cc(Cl)ccc1N(C(=O)CCl)C(C(=O)N1CCN[C@@H](C(C)C)C1)c1cccs1 (single isomer, unassigned; dia2) [I-52 dia2] | 223 | 24 | – | – |
| Cc1cc(Oc2ccccc2)ccc1N(C(=O)CCl)C(C(=O)N1CCN[C@@H](CC(C)C)C1)c1cccs1 (single isomer, unassigned; dia2) [I-47 dia2] | 849 | 8 | – | – |
| Cc1cc(Oc2ccccc2)ccc1N(C(=O)CCl)C(C(=O)N1CCNC(c2ccccc2)C1)c1cccs1 (centres unmarked) [Example I-45] | – | – | – | IC50 (HL-60; Homo sapiens, HL-60, 72 h): 2140 nM; IC50 (HL-60/R10; Homo sapiens, HL-60, 72 h): 17 nM |
| Cc1cc(Oc2ccccc2)ccc1N(C(=O)CCl)C(C(=O)N1CCN2CCC[C@H]2C1)c1cccs1 (some centres unmarked) [Example I-33] | – | 157 | 394 | – |
| CC(C)C[C@H]1CN(C(=O)C(c2cccs2)N(C(=O)CCl)c2ccc(Oc3ccccc3)cc2)CCN1 (single isomer, unassigned; dia1) [I-51 dia1] | 145 | 96 | – | – |
| CC[C@@H]1CN(C(=O)C(c2ccc(F)cc2)N(C(=O)CCl)c2ccc(Oc3ccccc3)cc2C)CCN1C(=O)OC(C)(C)C (single isomer, unassigned; dia1) [I-16 dia1] | 1480 | 450 | 527 | – |
| Cc1cc(CCC(C)(C)C)ccc1N(C(=O)CCl)C(C(=O)N1CCN[C@@H](C(C)C)C1)c1ccc(F)cc1 (some centres unmarked) [Example I-23] | – | – | – | IC50 (HL-60; Homo sapiens, HL-60, 72 h): 559 nM; IC50 (HL-60/R10; Homo sapiens, HL-60, 72 h): 12 nM |
| Cc1cc(Oc2ccccc2)ccc1N(C(=O)CCl)C(C(=O)N1CCN(C(=O)OC(C)(C)C)C(C(=O)NCc2ccccc2)C1)c1cccs1 (single isomer, unassigned; dia2) [I-53 dia2] | 547 | 305 | – | – |
| CC[C@H]1CN(C(=O)C(c2ccc(F)cc2)N(C(=O)CCl)c2ccc(Oc3ccccc3)cc2)CCN1C(=O)OC(C)(C)C (single isomer, unassigned; dia1) [I-19 dia1] | 516 | 97 | 128 | – |
| C[C@@H]1CNCCN1C(=O)C(c1cccs1)N(C(=O)CCl)c1ccc(Oc2ccccc2)cc1 (some centres unmarked) [reference compound] | – | – | – | IC50 (HL-60; Homo sapiens, HL-60): 311 nM; IC50 (HL-60/R10; Homo sapiens, HL-60): 38 nM |
| Cc1cc(CCC(C)(C)C)ccc1N(C(=O)CCl)C(C(=O)N1CCNC(C(C)C)C1)c1ccc(F)cc1 (single isomer, unassigned; dia2) [I-25 dia2] | 819 | 103 | – | – |
